Assays:
pqsA-lacZ reporter = pqsA-lacZ reporter induction in pqsA mutant cultures; type: cell-based, Pseudomonas aeruginosa pqsA mutant; details: pqsA mutant background, compounds added at onset of culture at 10 mg/L
Source text: Activity is reported as Miller units (MU), corrected for the OD of the cultures at 600 nm.
(§1) P. aeruginosa strains include: wild type PA14 (Rahme et al., Science 268, 1899-1902, 1995); an mvfR mutant (Cao et al., Proc. Natl. Acad. Sci. USA 98, 14613 -8, 2001); 8C12, a TnphoA-insertion mutant of pqsB (Mahajan-Miklos et al., Cell 96, 47-56, 1999); and a lasR::Gm mutant, which was generated by allelic exchange using pSB219.9A as described (Beatson et al., J Bacteriol 184, 3598-604, 2002). A pqsE deletion mutant was generated via pEX18Ap allelic replacement, using sucrose selection, resulting in a 570 bp non-polar deletion covering 65% of the sequence (Hoang et al., Gene 212, 77-86, 1998). The pqsA (U479) TnphoA mutant was obtained from the PA14 Transposon Insertion Mutant Database. For complementation analysis, mvfR was cloned into pDN18 (Nunn et al., J. Bacteriol. 172, 1990). The reporter fusions phzABC-lacZ and hcnA′-lacZ have been described (Whiteley et al., J. Bacteriol. 182, 4356-60, 2000; Pessi et al., J. Bacteriol. 182, 6940-9, 2000). Plasmids were transformed into PA14 by electroporation (Smith et al., Nuc. Acid. Res. 17, 10509, 1989). Specific β-galactosidase activity was determined as reported (Miller, Cold Spring Harbor Laboratory, Cold Spring Harbor, N.Y., pp. 352-355 1972).

[1] = Pesci et al. 1999; cited from earlier work
pyocyanin production = assay: Pyocyanin production in pqs or mvfR mutant cultures; type: cell-based, Pseudomonas aeruginosa pqs or mvfR mutants; details: addition to cultures of any pqs or mvfR mutants
Procedure: Whereas pqsA or pqsB inactivation abolish HAQ production, a pqsE mutant produces essentially normal HAQ levels (FIG. 12), and HAQ-related antibiotic activity (FIG. 6). […] Supporting this notion, mvfR overexpression gave excessive pyocyanin accumulation (FIG. 12). […] Such compounds would not be detected by our assay, which was aimed at extracellular compounds. Loss of these compounds might underlie the reduced pathogenicity of a pqsE mutant.
Bacteria were grown in Luria-Bertani broth or on 1.5% Bacto-agar (Difco) LB plates. Freshly plated cells served as inoculum. For pyocyanin production, bacteria were grown in King's A broth (King et al., J. Lab. Clin. Med. 44, 301, 1954) and the pyocyanin quantified as OD520 after supernatant extraction (Essar et al., J. Bacteriol. 172, 884-900, 1990). Tetracycline (75 mg/L), carbenicillin (300 mg/L), kanamycin (200 mg/L), and gentamicin (100 mg/L) were included as required.

cytochrome = details: Lightbown et al. 1956; cited from earlier work
[2] = tested on: Na^+-translocating NADH-quinone oxidoreductases; details: Häse et al. 2001; cited from earlier work
Bacillus subtilis = assay: Antimicrobial activity assay on well-plates (growth inhibition zones); type: cell-based; details: well-plate, 60 μl of 25% methanol solution of test extract or pure HAQ, overnight 37° C.; FIG. 10
Source text: Bacillus subtilis growth on well plates was scored for inhibition by culture extracts of PA14 and the mvfR, pqsA, and pqsE mutant strains (left plate), and by purified PQS, HHQ and HQNO, versus PA14 extract (right plate).
Fluorescent pseudomonads, and perhaps just P. aeruginosa, are the only microorganisms identified to produce HAQs (Budzikiewicz, FEMS Microbiol. Rev. 104, 209-228, 1993; Lépine et al., Biochim. Biophys. Acta 1622, 36-40, 2003). Although their biological functions are unknown, many HAQs were initially isolated as antibiotics (Hays et al., J. Biol. Chem. 159, 725-750, 1945; Wells, J. Biol. Chem. 196, 331-340, 1952). We assayed the antimicrobial activity of total organic extracts from PA14 and mvfR, pqsA, and pqsE mutant strains, and purified PQS, HHQ and HQNO, against the Gram-positive species Staphylococcus aureus and Bacillus subtilis. […] Thus, MvfR regulates the production of antibiotics that can function in niche competition against other bacteria. Because the pqsE mutant and PA14 produce roughly the same levels of antimicrobial activity, these antibiotic compounds are probably HAQs, instead of other non-polar compounds whose synthesis is under PQS control.
HAQ antimicrobial activity was evaluated on well-plates. […] Plates were incubated overnight at 37° C. and scored for growth inhibition zones around the test wells.

phzABC-lacZ reporter = phzABC-lacZ reporter activity after exogenous HHQ, wild-type PA14 cells; type: cell-based, Pseudomonas aeruginosa PA14; details: wild-type PA14, 10 mg/L HHQ added to culture medium
Source text: To determine whether HHQ is itself involved in signal gene regulation, independently from PQS activity, or whether it functions solely as a PQS precursor, we asked whether exogenous HHQ can stimulate the activity of a phzABC-lacZ reporter carried by wild-type PA14 cells, and by lasR^− mutant cells.
as §1, with “The reporter fusions phzABC-lacZ and hcnA′-lacZ have been described (Whiteley et al., J. Bacteriol. 182, 4356-60, 2000; Pessi et al., J. Bacteriol. 182, 6940-9, 2000). Plasmids were transformed into PA14 by electroporation (Smith et al., Nuc. Acid. Res. 17, 10509, 1989).” left out, “1972). […]” for “1972).”

For `Nc1ccccc1C(=O)O` [AA, anthranilic acid], the “pqsA-lacZ induction (LacZ activity)” value (pqsA-lacZ reporter) was “does not”.

For `CCCCCCCc1nc2ccccc2c(O)c1O` [PQS, 3,4-dihydroxy-2-heptylquinoline], the “pqsA-lacZ induction (LacZ activity)” value (pqsA-lacZ reporter) is given as “activates pqsA transcription”, the antibiotic activity [1] is given as “no antibiotic activity” and the “induction of pyocyanin production” value (pyocyanin production) is given as “failed to induce pyocyanin production”.

In the case of `CCCCCCCc1cc(O)c2ccccc2[n+]1[O-]` [HQNO, 4-hydroxy-2-heptylquinoline N-oxide], the cytochrome inhibition (cytochrome) is given as “widely used cytochrome inhibitor”, the “inhibition of Na^+-translocating NADH-quinone oxidoreductases” value [2] is given as “inhibits” and the “antimicrobial activity (growth inhibition)” value (Bacillus subtilis) is given as “specific antibacterial activity”.

With `CCCCCCCc1cc(O)c2ccccc2n1` [HHQ, 4-hydroxy-2-heptylquinoline] the “β-galactosidase activity of phzABC-lacZ reporter” value (phzABC-lacZ reporter) was “induces significant and consistent levels of β-galactosidase activity” and the “induction of pyocyanin production” value (pyocyanin production) was “failed to induce pyocyanin production”.

— patent US8906602B2, “Methods for identifying candidate compounds for treating, reducing, or preventing pathogenic infections” (The General Hospital Corporation, priority 2004, dated 2014)
